Test results taken from patent US20260061191A1, “Using Alternating Electric Fields to Increase Cell Membrane Permeability” (The Board of Trustees of the Leland Stanford Junior …, priority 2018, published 2026).

Experiments:
[1] = test system: U87-MG cells on PCS-201 fibroblasts co-culture; experiment: 5-ALA uptake (PpIX fluorescence), U87-MG GBM on PCS-201 fibroblast co-cultures; assay type: cell-based, human
U87-MG cells [2] = experiment: 5-ALA uptake (PpIX fluorescence), single U87-MG culture; assay type: cell-based, human
Method: Experiments were performed to determine the effects of TTFields on uptake of 5-ALA (as measured by PpIX accumulation and its resultant fluorescence) in glioblastoma cells. Because it is difficult to distinguish the margin between tumor and normal cells using the present 5-ALA bioassay, the measurement of PpIX fluorescence was used to address this issue. Investigations were run to determine whether permeation of 5-ALA through the cellular membrane and into the glioblastoma cells could be increased with TTFields exposure. U87-MG cells were exposed or unexposed to TTFields, each for durations of 6-24 h.
All monovariant statistical comparisons between no TTFields vs. TTFields samples done by Student's t-test for n=3 experiments per time point.

[3] = test system: MDA-MB-435 human melanoma cell line cells; experiment: Permeability of cell membranes to 7-AAD, flow cytometry; assay type: cell-based
Method: After this 15 minute period, alternating electric field application was terminated and the cells were incubated at room temperature for an additional 15 minutes.
After this 24 hour period, the alternating electric fields were turned off for 15 minutes, after which the 7-AAD was added. After waiting an additional 15 minutes, the percentage of cells with increased accumulation of the fluorescent 7-AAD was determined using flow cytometry.

U87-MG cells [4] = experiment: Timing of permeability to 7-AAD after alternating electric field, flow cytometry; assay type: cell-based, human; conditions: 300 kHz, 1.62 V/cm RMS, 24 hours; sample incubated with 7-AAD while subjected to the field (added 15 minutes prior to cessation)
Method: FIG. 7D depicts the results of an experiment to test how quickly the permeability drops back down after cessation of the alternating electric fields. More specifically, 7-Aminoactinomycin D (7-AAD) is a fluorescent chemical compound with a strong affinity for DNA. […] 7-AAD was introduced into samples at five different times: 15 minutes prior to the cessation of the alternating electric field; immediately after cessation of the alternating electric field […]. In each case, the cells were incubated with 7-AAD for 30 minutes after introduction of the 7-AAD, followed by flow cytometry analysis of the percentage of cells with increased accumulation of the fluorescent 7-AAD for each of the different timings.

GBM39/Luc cells = experiment: Drug sensitivity / synergy with TTFields; assay type: cell-based, human
GBM39 cells = experiment: Drug sensitivity with TTFields; assay type: cell-based, human; conditions: TTFields for 3 days vs control without TTFields
U87-MG/GFP-Luc cells = experiment: Drug sensitivity / synergy with TTFields; assay type: cell-based, human
glioblastoma patients = experiment: Survival of glioblastoma patients treated with TTFields plus temozolomide; assay type: in vivo, human; conditions: TTFields plus temozolomide vs temozolomide alone, re-analysis of Ram et al.
Excerpt: The treatment of glioblastoma (GBM) using alternating electric fields is a novel, validated therapy that has become an additional modality (after surgery chemoradiation and chemotherapy) for anti-cancer treatments. Intermediate frequency alternating electric fields (100-500 kHz) have been studied in detail. […] In the context of treating tumors, alternating electric fields at these frequencies are often referred to as “tumor treating fields” or “TTFields.”
Recurrence of GBM is inevitable and the median time to first recurrence despite standard therapy is approximately 7 months. […] TTFields compliance (≥75% vs. <75%) was an independent predictor of overall survival in the retrospective analysis of the full EF-14 trial dataset and the duration of use of TTFields was also found to affect overall survival. […] Namely, a correlation between the length of TTFields exposure and the duration of its effect on cell membrane permeability after cessation of TTFields was observed. At lengths of TTFields exposure of 0.5-3 h, the duration in BLI augmentation (compared to no TTFields conditions) lasted about 5 min. However, at TTFields exposures of 12-25 h, this difference in BLI between TTFields and no TTFields conditions lasted for more than 20 min.

U87-MG/eGFP-fLuc cells [5] = experiment: Annexin-V-APC binding (early apoptosis), fluorescence microscopy; assay type: cell-based, human; conditions: 21 μM, TTFields-unexposed samples
Method: To test if the imposition of TTFields affects cell membrane properties, and thus membrane permeability, the effect of TTFields on the behavior of fluorescently tagged reagents that bind to the cellular membrane was determined. Initially, the impact of TTFields on the binding of Annexin-V-APC to the membrane of U87-MG/eGFP-fLuc cells was measured. Annexin-V-APC binding is a signature of early apoptosis which is characterized by ruffling of the membrane.

human glioblastoma cells = experiment: Growth inhibition by TTFields in conjunction with Withaferin A; assay type: cell-based; conditions: TTFields treatment in conjunction with Withaferin A
Excerpt: In this figure, 5-ALA=5-aminolevulinic acid; Ethidium D=ethidium bromide; and FITC=fluorescein isothiocyanate.

[6] = test system: human glioblastoma cells that have been modified to express luciferase
Method: U87-MG/eGFP-fLuc cells were seeded on Thermanox glass coverslips, allowed to settle and grow, and then subjected to either TTFields or no TTFields.
Bioluminescence imaging: For all bioluminescence work, we used genetically-modified GBM2, GBM39 and U87-MG whereby the glioblastoma cells were transfected with lentiviral vectors that expressed either firefly luciferase (fLuc for GBM39) or a fusion protein of GFP and firefly luciferase (GFP/fLuc for GBM2 and eGFP-fLuc for U87-MG) or a Renilla luciferase-Red Fluorescence protein fusion (RLuc-RL8 for KR158B).

MES-SA cells = experiment: Intracellular accumulation of doxorubicin under 150 kHz alternating electric field; conditions: 1.62 V/cm RMS, 24 hours, 10 μM doxorubicin for the last hour
Method: In this experiment, MES-SA cells were treated with an alternating electric field at 150 kHz with a field strength of 1.62 V/cm RMS for 24 hours. After the first 23 hours, doxorubicin at a concentration of 10 μM was added and incubated for one hour during which time the alternating electric fields was continued (to complete the 24 hour period). The intracellular accumulation of doxorubicin was then measured.

MDA-MB-235 cells = experiment: Drug sensitivity / synergy with TTFields; assay type: cell-based
[7] = test system: MDA-MB-435 cells, doxorubicin resistant; experiment: Intracellular accumulation of doxorubicin under alternating electric field; conditions: 150 kHz, 1.62 V/cm, 23 hours, then 10 μM doxorubicin for one hour with field; vs no field
Method: (§1) In this experiment, both wild type and doxorubicin resistant variants of MDA-MB-435 cells were treated with an alternating electric field at 150 kHz with a field strength of 1.62 V/cm for 23 hours. After this 23 hour period, doxorubicin at a concentration of 10 μM was added and incubated for one hour, during which time the alternating electric fields was continued. The intracellular accumulation of doxorubicin was then measured.

[8] = test system: MDA-MB-435 cells, wild type; experiment: as above; conditions: 150 kHz, 1.62 V/cm, 23 hours, then 10 μM doxorubicin for one hour with field; vs no field
Method: as §1

U87-MG/eGFP-fLuc cells [9] = experiment: Ethidium D uptake under TTFields; assay type: cell-based, human; conditions: 200 kHz TTFields vs no TTFields, p<0.0001
Excerpt: Ethidium D permeates through both the plasma membrane and the nuclear membrane and intercalates into genomic DNA.

[10] = molecular target: T1, purified firefly luciferase (Photinus pyralis, UniProt P08659); experiment: Activity of purified firefly luciferase exposed to TTFields; assay type: biochemical; conditions: 200 kHz TTFields, 60 minutes after initiation of TTFields
T1 construct: purchased Sigma Aldrich Inc (St. Louis, MO) SRE0045-2MG

[11] = TTFields for 3 days vs control without TTFields

T1 sequence (P08659 whole entry): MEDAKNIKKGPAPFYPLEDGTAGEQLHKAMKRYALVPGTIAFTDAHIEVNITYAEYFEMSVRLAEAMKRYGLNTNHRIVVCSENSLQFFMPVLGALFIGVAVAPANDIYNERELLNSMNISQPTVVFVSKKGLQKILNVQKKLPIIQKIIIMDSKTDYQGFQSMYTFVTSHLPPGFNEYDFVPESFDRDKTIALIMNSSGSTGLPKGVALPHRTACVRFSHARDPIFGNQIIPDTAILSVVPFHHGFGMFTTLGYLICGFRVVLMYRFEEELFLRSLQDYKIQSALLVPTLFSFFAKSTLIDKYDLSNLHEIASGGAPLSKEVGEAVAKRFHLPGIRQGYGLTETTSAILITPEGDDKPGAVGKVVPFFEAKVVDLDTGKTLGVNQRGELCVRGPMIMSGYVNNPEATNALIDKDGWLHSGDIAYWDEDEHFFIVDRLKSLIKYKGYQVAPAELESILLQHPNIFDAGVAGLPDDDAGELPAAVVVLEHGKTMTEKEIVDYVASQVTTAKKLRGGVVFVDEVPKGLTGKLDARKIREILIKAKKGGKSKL

NCC(=O)CCC(=O)O [5-ALA, 5-aminolevulinic acid]
5-ALA uptake in the GBM cells compared to the fibroblast cells (ratio of PpIX fluorescence intensity) ([1]; TTFields exposure (by 24 h, p=0.043) vs no TTFields): significantly increased | rate of PpIX fluorescence intensity increase ([1]; TTFields-exposed vs unexposed co-cultures, 2, 6 and 24 h, p<0.001): significantly augmented | uptake of 5-ALA (PpIX fluorescence) (U87-MG cells [2]; 6 h of TTFields exposure vs no TTFields, p=0.047): significantly increased uptake | uptake of 5-ALA (PpIX fluorescence) (U87-MG cells [2]; 24 h of TTFields exposure vs no TTFields, p=0.011): increase was maintained

Cc1c2oc3c(C)c(N)cc(C(=O)N[C@@H]4C(=O)N[C@H](C(C)C)C(=O)N5CCC[C@H]5C(=O)N(C)CC(=O)N(C)[C@@H](C(C)C)C(=O)O[C@@H]4C)c3nc-2c(C(=O)N[C@@H]2C(=O)N[C@H](C(C)C)C(=O)N3CCC[C@H]3C(=O)N(C)CC(=O)N(C)[C@@H](C(C)C)C(=O)O[C@@H]2C)c(N)c1=O [7-AAD, 7-Aminoactinomycin D]
percentage of cells with increased accumulation of 7-AAD ([3]; 150 kHz, 1.62 V/cm, 24 hours, 7-AAD added 15 minutes after fields were turned off): ~20% | percentage of cells with increased accumulation of 7-AAD ([3]; 150 kHz, 1.62 V/cm, 24 hours, 7-AAD added for the last 15 minutes of the field): ~66% | percentage of cells with increased accumulation of 7-AAD ([3]; control, same conditions, alternating electric fields not applied): less than 5% | percentage of cells with increased accumulation of 7-AAD (U87-MG cells [4]): significant increase in accumulation

CCc1c2c(nc3ccc(OC(=O)N4CCC(N5CCCCC5)CC4)cc13)-c1cc3c(c(=O)n1C2)COC(=O)[C@]3(O)CC [Irinotecan]
synergy of the combination with TTFields (GBM39/Luc cells): synergy was found | sensitivity of cells to various concentrations of drug (GBM39/Luc cells; [11]): improves the sensitivity

O=NN(CCCl)C(=O)NC1CCCCC1 [Lomustine]
sensitivity of cells to various concentrations of drug (GBM39 cells): improves the sensitivity | sensitivity of cells to various concentrations of drug (U87-MG/GFP-Luc cells; [11]): improves the sensitivity | sensitivity of cells to various concentrations of drug (pcGBM2/GFP-Luc cells; [11]): improves the sensitivity

Cn1nnc2c(C(N)=O)ncn2c1=O [Temozolomide]
percent increase in overall survival (glioblastoma patients; after 1 year of TTFields exposure): 32% | percent increase in overall survival (glioblastoma patients; after 5 years of TTFields exposure): 551%

CC1=C(CO)C(=O)O[C@@H]([C@@H](C)[C@H]2CC[C@H]3[C@@H]4C[C@H]5O[C@]56[C@@H](O)C=CC(=O)[C@]6(C)[C@H]4CC[C@]23C)C1 [Withaferin A]
synergy of the combination with TTFields (U87-MG/GFP-Luc cells): synergy was found | synergy of the combination with TTFields (GBM39/Luc cells): synergy was found | synergy of the combination with TTFields (pcGBM2/GFP-Luc cells): synergy was found | Annexin-V-APC binding (positive control for apoptosis) (U87-MG/eGFP-fLuc cells [5]): could be visualized | growth of human glioblastoma cells (human glioblastoma cells): synergistically inhibited the growth

Oc1ccc(Cc2nc3c(Cc4ccccc4)nc(-c4ccc(O)cc4)cn3c2O)cc1 [coelenterazine]
permeation of the substrates through the plasma membrane (greater bioluminescence) [6]: increased permeation

COc1cccc2c1C(=O)c1c(O)c3c(c(O)c1C2=O)C[C@@](O)(C(=O)CO)C[C@@H]3O[C@H]1C[C@H](N)[C@H](O)[C@H](C)O1 [doxorubicin]
increase of intracellular accumulation of doxorubicin (MES-SA cells): more than 2 X | synergy of the combination with TTFields (MDA-MB-235 cells): Evidence of synergy | sensitivity of cells to various concentrations of drug (MDA-MB-235 cells; [11]): improves the sensitivity | intracellular accumulation of doxorubicin [7]: increased | intracellular accumulation of doxorubicin [8]: increased

CC[n+]1c(-c2ccccc2)c2cc(N)ccc2c2ccc(N)cc21 [ethidium D, ethidium bromide]
ethidium D uptake (U87-MG/eGFP-fLuc cells [9]): significantly increased

firefly luciferase: purified firefly luciferase (SRE0045-2MG) purchased from Sigma Aldrich
loss in enzymatic activity [10]: > 1000 fold
